The test system of series [1] is HIV-1LAI. Kind of series: HIV-1 replication reverse transcriptase assay in PBMC. The series is classed as cell-based, HIV type-1. The note with it: for anti-HIV-1 activity (in words): HIV-1LAI in human PBMC.
Series [2] has as its system primary human peripheral blood mononuclear cells.
Series [3] concerns B/Florida/4/2006. The series can be described thus: microbe, parasite or virus in culture. The series is classed as cell-based, Influenza B virus.
Series [4] relates to human parainfluenza virus type 3 (isolate 14702). The series can be described thus: microbe, parasite or virus in culture. The series is classed as cell-based.
Series [5] concerns severe acute respiratory syndrome (SARS) coronavirus (strain Urbani). The series can be described thus: microbe, parasite or virus in culture. The series is classed as cell-based.
Series [6] relates to A/Vietnam/1203/2004 (highly pathogenic avian influenza H5N1). The series can be described thus: microbe, parasite or virus in culture. Type of series: cell-based, Influenza A virus (H5N1 highly pathogenic).
Series [7] concerns Vero 76 African green monkey kidney epithelial cells.
Series [8] has as its system A/California/07/2009 (pandemic swine-origin H1N1). The series can be described thus: microbe, parasite or virus in culture. The series is classed as cell-based, Influenza A virus (H1N1).
Series [9] concerns A/duck/Minnesota/1525/81 (low pathogenic avian influenza H5N1). Kind of series: microbe, parasite or virus in culture. The series is classed as cell-based, Influenza A virus (H5N1 low pathogenic).
Series [10] deals with A/Perth/16/2009 (seasonal H3N2). Kind of series: microbe, parasite or virus in culture. The series is classed as cell-based, Influenza A virus (H3N2).
Series [11] concerns MA-104 embryonic African green monkey kidney epithelial cells.
The nature of series [12]: Hydrolytic stability of DMSO stock solution under freezing–. The note with it: multiple freezing–(re-thawing) cycles.
Series [13] deals with Madin–Darby canine kidney (MDCK) cells. The settings on record: A/duck/Minnesota/1525/81 test.
Series [14] concerns primary human peripheral blood mononuclear cells. The series can be described thus: Cytotoxicity on PBMCs. The settings on record: for CC50: experiment 1, PBMC.
The nature of series [15]: in vitro. The note with it: African green monkey.
Series [16] can be described thus: in vitro. The settings on record: dog.
Series [17] is described as follows: in vitro. The note with it: African green monkey. The source holds these as a separate data set.
Series [18] in a line: in vitro. The note with it: human.
The mark [19] stands for this setting: experiment 1, PBMC, 9: fresh DMSO stock.
[20] abbreviates: experiment 1, PBMC, RT activity in supernatant, 9: fresh DMSO stock.
Setting [21] is: experiment 2, PBMC, 9: fresh DMSO stock.
Where [22] appears, read: experiment 1, DMSO stock after second FRC.
The mark [23] stands for this setting: Human immunodeficiency virus 1, PBMC, experiment 1, PBMC, 9: fresh DMSO stock.
Setting [24] is: Human immunodeficiency virus 1, PBMC, experiment 2, PBMC, 9: fresh DMSO stock.

pEC50: −log10 of the molar value. ≈ marks a conversion by molar mass, not a printed value. Structures can show the parent of a compound that is named as a salt. Where two headings read alike, the source gives them in different places. Some results are limits rather than exact numbers.

Data on 11 molecules can be found in paper PMC7734623 (Antiviral chemistry & chemotherapy, 2012).

Turning to `Cl.O=C(CNC12CC3CC(CC(C3)C1)C2)c1ccc(F)cc1` [Compound 12, 1-(4-Fluorophenyl)-2-(tricyclo[3.3.1.1^3,7]dec-1-ylamino) ethanone hydrochloride×0.11 H2O], the “anti-HIV-1 activity (in words)” value in series [1] is recorded as “did not show any anti-HIV-1 activity”. Also, the EC90 (as a rule, the point of the concentration-response curve where the effect stands at 90%) in series [1] (setting [19]) was above 100 µM. Moreover, the figures for the pEC50 in series [1] (setting [20]) and in series [9] (low pathogenic H5N1 A/duck/Minnesota/1525/81) were below 4.00 and 5.53, respectively. Also, the CC50 was above 100 µM in [2], above 100 µg/mL in series [7], 49 µg/mL in series [11] and 35 µg/mL in series [13]. Moreover, the EC50 (as a rule, the concentration giving half of the maximal effect) in series [3] is above 50 µg/mL; in series [4] it was above 49 µg/mL; in series [5] (Urbani, Vero 76 (130 CCID50), neutral red), 92 µg/mL; in series [6] (A/Vietnam/1203/2004, MDCK (≤42 CCID50), neutral red), 50 µg/mL; in [8] it was above 36 µg/mL; in series [9] (A/duck/Minnesota/1525/81, MDCK (25 CCID50), neutral red), 0.95 µg/mL. The EC50 in [10] is above 37 µg/mL. Further, the “inhibition of virus replication (in words)” value in [3] was “inactive”; in [4], “did not inhibit”; in series [5] (SARS coronavirus) it was “did not inhibit”; in [6] (A/Vietnam/1203/2004), “inactive”; in series [8], “inactive”; in [9] (A/duck/Minnesota/1525/81 (H5N1), amantadine-susceptible), “did inhibit”. Moreover, in series [10], the “inhibition of virus replication (in words)” value is “inactive”. Further, in series [12], the “activity of DMSO stock solution during multiple FRCs (in words)” value was “did not lose activity”.

With `Nc1nc2ncc(CNc3ccc(C(=O)N[C@@H](CCC(=O)O)C(=O)O)cc3)nc2c(=O)[nH]1.O.O` [Compound 8, L-folic acid dihydrate, reference compound], in [1], the “anti-HIV-1 activity (in words)” value is reported as “did not show any anti-HIV-1 activity”. In series [1] (setting [21]), the pEC50 – broadly, the negative decadic logarithm of the EC50, by convention in mol/L – was below 4.00 and the EC90 is above 100 µM. In series [14], the “toxicity in PBMC (in words)” value is on record as “exhibited toxicity” and the CC50 was 25.7 µM.

Turning to `Nc1nc2ncc(CNc3ccc(C(=O)N[C@@H](CCC(=O)[O-])C(=O)[O-])cc3)nc2c(=O)[nH]1.O.O.O.O.[Na+].[Na+]` [Compound 11, Disodium (2S)-2-(pteroylamino)pentanedioate×4 H2O], the “anti-HIV-1 activity (in words)” value in series [1] was “did not show any anti-HIV-1 activity”. Also, in series [1] (setting [19]), the 90% effect concentration (EC90) was above 100 µM. This molecule also had a pEC50 in [1] (setting [20]) below 4.00. Moreover, the CC50 in [2] was above 100 µM.

On to `O=C([O-])CC[C@H](NC(=O)c1ccc(NCc2cnc3nc([N-]c4nc5ncc(CNc6ccc(C(=O)N[C@@H](CCC(=O)[O-])C(=O)[O-])cc6)nc5c(=O)[nH]4)[nH]c(=O)c3n2)cc1)C(=O)[O-].[Na+].[Na+].[Na+].[Na+].[Na+]` [Compound 10, Pentasodium (2S,2′S)-2,2′-{azanidediylbis[(4-{[(4-oxo-3,4-dihydropteridine-2,6-diyl)methyl]amino}benzoyl)amino]}dipentanedioate×3 H2O×2.5 acetone], for which, in [1], the “anti-HIV-1 activity (in words)” value is “did not show any anti-HIV-1 activity”. In series [1] (setting [19]), this molecule returned an EC90 above 100 µM. The molecule further had a pEC50 in [1] (setting [20]) below 4.00. The CC50 in series [14] is above 100 µM.

“[1,4-Bis(4-hydroxyphenyl)butane-1,4-dione – 1,4-bis(4-methoxyphenyl)butane-1,4-dione (7) – (2S,2′S)-2,2′-{[(tricyclo[3.3.1.1^3,7]dec-1-ylamino)methanediyl] bis(pteroylimino)}dipentanedioic acid (0.2:1:1)]×3 H2O×0.4 acetone [Compound 9]”: in [1] (DMSO stock after first FRC), the “antiretroviral activity after first FRC (in words)” value is reported as “seriously affected”. Moreover, the “antiretroviral activity after second FRC (in words)” value in series [1] (DMSO stock after second FRC) was “completely lost”. The “anti-HIV-1 activity (in words)” value in series [1] was “effective inhibitor”. Besides, the EC90 was 57.7 µM in series [1] (experiment 1, DMSO stock after first FRC); above 100 µM in [1] (setting [22]); 34.2 µM in series [1] (setting [19]); 34.8 µM in series [1] (setting [21]). Besides, the pEC50 in series [1] (experiment 1, DMSO stock after first freezing-(re-thawing) cycle (FRC)) was 4.49; in [1] (setting [22]), below 4.00; in series [1] (setting [20]) it was 5.46; in series [1] (setting [21]) it was 4.97.

In series [5] (Severe acute respiratory syndrome-related coronavirus, Vero 76), `CC(C)C[C@H](NC(=O)OCc1ccccc1)C(=O)NC(CCC(=O)N(C)C)C(=O)CF` (mixture of isomers) [EP128533, (4RS)-4-[N-(benzyloxycarbonyl)-L-leucylamino]-6-fluoro-5-oxohexanoic acid N,N-dimethylamide, reference compound] gave an EC50 of 1.3 µg/mL. Further, the CC50 in series [15] was above 100 µg/mL.

In the case of `CCC(CC)O[C@@H]1C=C(C(=O)O)C[C@H](N)[C@H]1NC(C)=O` [oseltamivir carboxylate, (3R,4R,5S)-4-(acetylamino)-5-amino-3-(pentan-3-yloxy)cyclohex-1-ene-1-carboxylic acid, reference compound], the midpoint of the response in series [9] (Influenza A virus, H5N1, MDCK), the EC50, lay at 0.061 µg/mL. In [16], this molecule had a CC50 above 10 µg/mL.

In the case of `NC(=O)c1ncn([C@@H]2O[C@H](CO)[C@@H](O)[C@H]2O)n1` [ribavirin, 1-β-D-ribofuranosyl-1H-1,2,4-triazole-3-carboxamide, reference compound], the EC50 in series [3] (Influenza B virus, MDCK) was 3.9 µg/mL (≈ 16 µM); in series [4] (Human respirovirus 3, MA104) it was 14 µg/mL (≈ 57.3 µM); in [6] (Influenza A virus, H5N1, MDCK), 9.4 µg/mL (≈ 38.5 µM); in [8] (Influenza A virus, H1N1, MDCK), 4.2 µg/mL (≈ 17.2 µM); in series [9] (Influenza A virus, H5N1, MDCK), 5.4 µg/mL; in series [10] (Influenza A virus, H3N2, MDCK), 2.9 µg/mL (≈ 11.9 µM). In addition, the CC50 is above 100 µg/mL in [16] and 190 µg/mL (≈ 778 µM) in [17].

With `NC12CC3CC(CC(C3)C1)C2` [1 ×HCl, 1-Adamantanammonium chloride, reference compound], the “anti-HIV-1 activity (in words)” value in series [1] was “did not show any anti-HIV-1 activity”. Besides, the EC90 in series [1] (setting [23]) was above 100 µM. In series [1] (experiment 1), the “SI50 (selectivity index CC50/EC50)” value is given as above 1.1. The molecule further showed a CC50 in series [18] above 100 µM.

As to `Cc1cn([C@H]2C[C@H](N=[N+]=[N-])[C@@H](CO)O2)c(=O)[nH]c1=O` [AZT, 3′-azido-3′-deoxythymidine, reference compound], the results for the EC90 in [1] (setting [23]) and in [1] (setting [24]) were 0.031 µM and 0.047 µM, respectively. In [1] (setting [24]), this molecule showed a pEC50 of 8.04. For the same molecule, the “SI50 (selectivity index CC50/EC50)” value is >22,727 in [1] (experiment 1) and >10,989 in [1] (experiment 2). Moreover, the CC50 in series [2] (human) and in [18] was above 100 µM each time.

As to `CC(=NC12CC3CC(CC(C3)C1)C2)c1ccc(F)cc1` [Compound 4, 1-(4-Fluorophenyl)ethanone – tricyclo[3.3.1.1^3,7]dec-1-ylazanylidene (1:1)], in [1], the “anti-HIV-1 activity (in words)” value is given as “did not show any anti-HIV-1 activity”. The same molecule came in with an EC90 in series [1] (setting [19]) above 100 µM. Also, the pEC50 in [1] (setting [20]) is below 4.00. The molecule further registered a CC50 in [2] above 100 µM.
